# Measured values reported in patent US8952024B2, “Herbicidal pyrimidone derivatives” (E I du Pont de Nemours and Company, priority 2009, dated 2015).
# Experiments:
# Experiment in all cases: Test D pre-/postemergence plant response
# Type in all cases: in vivo
# [1] = system: Russian thistle (Salsola kali)
# Procedure, shortened: (§1)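 Scores (0 no effect, 100 complete control) reflect visual assessment against untreated plants after 14 to 21 days. Treatments were pre- and postemergence sprays in solvent with surfactant.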
# [2] = system: Surinam grass (Brachiaria decumbens)
# Procedure, shortened: as §1
# [3] = system: bermudagrass (Cynodon dactylon)
# Procedure, shortened: as §1
# [4] = system: black mustard (Brassica nigra)
# Procedure, shortened: as §1
# [5] = system: bluegrass (annual bluegrass, Poa annua)
# Procedure, shortened: as §1
# [6] = system: dayflower (Virginia (VA) dayflower, Commelina virginica)
# Procedure, shortened: as §1
# [7] = system: goosegrass (Eleusine indica)
# Procedure, shortened: as §1
# [8] = system: green foxtail (Setaria viridis)
# Procedure, shortened: as §1
# [9] = system: guineagrass (Panicum maximum)
# Procedure, shortened: as §1
# [10] = system: itchgrass (Rottboellia cochinchinensis)
# Procedure, shortened: as §1
# [11] = system: kochia (Kochia scoparia)
# Procedure, shortened: as §1
# [12] = system: morningglory (pitted morningglory, Ipomoea lacunosa)
# Procedure, shortened: as §1
# [13] = system: nutsedge (purple nutsedge, Cyperus rotundus)
# Procedure, shortened: as §1
# [14] = system: prickly sida (Sida spinosa)
# Procedure, shortened: as §1
# [15] = system: purslane (common purslane, Portulaca oleracea)
# Procedure, shortened: as §1
# [16] = system: signalgrass (broadleaf signalgrass, Brachiaria platyphylla)
# Procedure, shortened: as §1
# [17] = system: sowthistle (common sowthistle, Sonchus oleraceous); conditions: Postemergence
# Procedure, shortened: as §1
# [18] = system: spanishneedles (Bidens bipinnata)
# Procedure, shortened: as §1
# [19] = Postemergence, 31 g ai/ha, scale 0 to 100
# [20] = Postemergence, 62 g ai/ha, scale 0 to 100 (0 no effect, 100 complete control)
# [21] = Postemergence, 125 g ai/ha, scale 0 to 100 (0 no effect, 100 complete control)
# [22] = Postemergence, 250 g ai/ha, scale 0 to 100 (0 no effect, 100 complete control)
# [23] = Preemergence, 125 g ai/ha, scale 0 to 100
# [24] = Preemergence, 250 g ai/ha, scale 0 to 100
# [25] = Preemergence, 62 g ai/ha, scale 0 to 100
structure (smiles),measurement,setting,value
"COCCn1c(-c2cc(F)cc(F)c2)ncc(C(=O)C2=C(O)C3CCC(C3)C2=O)c1=O (stereo not shown) [Compound 243, 2-(3,5-difluorophenyl)-5-[(2-hydroxy-4-oxobicyclo[3.2.1]oct-2-en-3-yl)carbonyl]-3-(2-methoxyethyl)-4(3H)-pyrimidinone]","Plant response rating, Russian Thistle",[1]; [19],20
same,"Plant response rating, Russian Thistle",[1]; [20],30
same,"Plant response rating, Russian Thistle",[1]; [21],30
same,"Plant response rating, Russian Thistle",[1]; [22],60
same,"Plant response rating, Russian Thistle",[1]; [23],100
same,"Plant response rating, Russian Thistle",[1]; [24],100
same,"Plant response rating, Surinam Grass",[2]; [19],75
same,"Plant response rating, Surinam Grass",[2]; [20],75
same,"Plant response rating, Surinam Grass",[2]; [21],75
same,"Plant response rating, Surinam Grass",[2]; [22],85
same,"Plant response rating, Surinam Grass",[2]; [23],100
same,"Plant response rating, Surinam Grass",[2]; [24],100
same,"Plant response rating, Bermudagrass",[3]; [19],75
same,"Plant response rating, Bermudagrass",[3]; [20],85
same,"Plant response rating, Bermudagrass",[3]; [21],95
same,"Plant response rating, Bermudagrass",[3]; [22],95
same,"Plant response rating, Bermudagrass",[3]; [25],100
same,"Plant response rating, Bermudagrass",[3]; [23],100
same,"Plant response rating, Bermudagrass",[3]; [24],100
same,"Plant response rating, Black Mustard",[4]; [19],50
same,"Plant response rating, Black Mustard",[4]; [20],75
same,"Plant response rating, Black Mustard",[4]; [21],98
same,"Plant response rating, Black Mustard",[4]; [22],98
same,"Plant response rating, Black Mustard",[4]; [25],100
same,"Plant response rating, Black Mustard",[4]; [23],100
same,"Plant response rating, Black Mustard",[4]; [24],100
same,"Plant response rating, Bluegrass",[5]; [19],5
same,"Plant response rating, Bluegrass",[5]; [20],5
same,"Plant response rating, Bluegrass",[5]; [21],35
same,"Plant response rating, Bluegrass",[5]; [22],35
same,"Plant response rating, Bluegrass",[5]; [25],40
same,"Plant response rating, Bluegrass",[5]; [23],95
same,"Plant response rating, Bluegrass",[5]; [24],100
same,"Plant response rating, Dayflower, VA",[6]; [19],35
same,"Plant response rating, Dayflower, VA",[6]; [20],65
same,"Plant response rating, Dayflower, VA",[6]; [21],70
same,"Plant response rating, Dayflower, VA",[6]; [22],75
same,"Plant response rating, Dayflower, VA",[6]; [25],100
same,"Plant response rating, Dayflower, VA",[6]; [23],100
same,"Plant response rating, Dayflower, VA",[6]; [24],100
same,"Plant response rating, Goosegrass",[7]; [19],65
same,"Plant response rating, Goosegrass",[7]; [20],70
same,"Plant response rating, Goosegrass",[7]; [21],70
same,"Plant response rating, Goosegrass",[7]; [22],75
same,"Plant response rating, Goosegrass",[7]; [25],100
same,"Plant response rating, Goosegrass",[7]; [23],100
same,"Plant response rating, Goosegrass",[7]; [24],100
same,"Plant response rating, Foxtail, Green",[8]; [19],80
same,"Plant response rating, Foxtail, Green",[8]; [20],85
same,"Plant response rating, Foxtail, Green",[8]; [21],90
same,"Plant response rating, Foxtail, Green",[8]; [22],98
same,"Plant response rating, Foxtail, Green",[8]; [25],35
same,"Plant response rating, Foxtail, Green",[8]; [23],100
same,"Plant response rating, Foxtail, Green",[8]; [24],100
same,"Plant response rating, Guineagrass",[9]; [19],70
same,"Plant response rating, Guineagrass",[9]; [20],75
same,"Plant response rating, Guineagrass",[9]; [21],75
same,"Plant response rating, Guineagrass",[9]; [22],85
same,"Plant response rating, Guineagrass",[9]; [25],100
same,"Plant response rating, Guineagrass",[9]; [23],100
same,"Plant response rating, Guineagrass",[9]; [24],100
same,"Plant response rating, Itchgrass",[10]; [19],75
same,"Plant response rating, Itchgrass",[10]; [20],75
same,"Plant response rating, Itchgrass",[10]; [21],75
same,"Plant response rating, Itchgrass",[10]; [22],85
same,"Plant response rating, Itchgrass",[10]; [25],25
same,"Plant response rating, Itchgrass",[10]; [23],50
same,"Plant response rating, Itchgrass",[10]; [24],100
same,"Plant response rating, Kochia",[11]; [19],50
same,"Plant response rating, Kochia",[11]; [20],60
same,"Plant response rating, Kochia",[11]; [21],70
same,"Plant response rating, Kochia",[11]; [22],75
same,"Plant response rating, Kochia",[11]; [25],80
same,"Plant response rating, Kochia",[11]; [23],100
same,"Plant response rating, Kochia",[11]; [24],100
same,"Plant response rating, Morningglory",[12]; [19],75
same,"Plant response rating, Morningglory",[12]; [20],85
same,"Plant response rating, Morningglory",[12]; [21],85
same,"Plant response rating, Morningglory",[12]; [22],85
same,"Plant response rating, Morningglory",[12]; [23],98
same,"Plant response rating, Morningglory",[12]; [24],100
same,"Plant response rating, Nutsedge, Purple",[13]; [19],20
same,"Plant response rating, Nutsedge, Purple",[13]; [20],25
same,"Plant response rating, Nutsedge, Purple",[13]; [21],25
same,"Plant response rating, Nutsedge, Purple",[13]; [22],50
same,"Plant response rating, Nutsedge, Purple",[13]; [25],20
same,"Plant response rating, Nutsedge, Purple",[13]; [23],100
same,"Plant response rating, Nutsedge, Purple",[13]; [24],100
same,"Plant response rating, Prickly Sida",[14]; [19],60
same,"Plant response rating, Prickly Sida",[14]; [20],65
same,"Plant response rating, Prickly Sida",[14]; [21],70
same,"Plant response rating, Prickly Sida",[14]; [22],80
same,"Plant response rating, Prickly Sida",[14]; [25],100
same,"Plant response rating, Prickly Sida",[14]; [23],100
same,"Plant response rating, Prickly Sida",[14]; [24],100
same,"Plant response rating, Purslane",[15]; [19],35
same,"Plant response rating, Purslane",[15]; [20],50
same,"Plant response rating, Purslane",[15]; [21],50
same,"Plant response rating, Purslane",[15]; [22],50
same,"Plant response rating, Purslane",[15]; [25],95
same,"Plant response rating, Purslane",[15]; [23],100
same,"Plant response rating, Purslane",[15]; [24],100
same,"Plant response rating, Signalgrass",[16]; [19],50
same,"Plant response rating, Signalgrass",[16]; [20],75
same,"Plant response rating, Signalgrass",[16]; [21],75
same,"Plant response rating, Signalgrass",[16]; [22],95
same,"Plant response rating, Signalgrass",[16]; [23],95
same,"Plant response rating, Signalgrass",[16]; [24],100
same,"Plant response rating, Sowthistle","[17]; 31 g ai/ha, scale 0 to 100",90
same,"Plant response rating, Sowthistle","[17]; 62 g ai/ha, scale 0 to 100 (0 no effect, 100 complete control)",90
same,"Plant response rating, Sowthistle","[17]; 125 g ai/ha, scale 0 to 100 (0 no effect, 100 complete control)",95
same,"Plant response rating, Sowthistle","[17]; 250 g ai/ha, scale 0 to 100 (0 no effect, 100 complete control)",98
same,"Plant response rating, Spanishneedles",[18]; [19],60
same,"Plant response rating, Spanishneedles",[18]; [20],65
same,"Plant response rating, Spanishneedles",[18]; [21],70
same,"Plant response rating, Spanishneedles",[18]; [22],70
same,"Plant response rating, Spanishneedles",[18]; [23],100
same,"Plant response rating, Spanishneedles",[18]; [24],100
